Results from patent US20090025102A1, “GLUTAMATE RECEPTOR […] AND PROTEINS FOR ENHANCING NITROGEN U[…] CROP PLANTS” (PIONEER HI-BRED INTERNATIONAL, INC., priority 2007, published 2009).

What was measured:
[1] = test system: PSD1.1 and PSD2.1 KO plants; assay: Growth assay of PSD1.1 and PSD2.1 KO plants on media containing DNQX; assay type: in vivo, Arabidopsis; settings: 200 or 400 μM DNQX and 3% sucrose, 7 days
Protocol: Growth assays for the PSD1.1 and PSD2.1 KO plants were undertaken. Plants were sown on different media, refrigerated overnight, then incubated in the standard growth conditions for 7 days. The short vernalization was used as that is what has been typically used in this lab for DNQX experiments. […] When grown in the presence of 3% sucrose, both on MS and media lacking nitrogen PSD1.1 and PSD2.1 looks similar to Col-0.

AtGLR-AP knockout lines [2] = assay: Germination bioassay with the iGLR antagonist DNQX; assay type: in vivo, Arabidopsis
Protocol: Therefore we used a similar approach to test the sucrose sensitivity of the homozygous AtGLR-APs lines described above by conducting vertical plate assays on MS plates minus N and supplemented with increasing concentrations of sucrose. […] We also developed a short term N-sensitivity bioassay.
Bioassay, iGLR Antagonist DNQX
However, germination of the GRASP2.1-1 line was not affected when DNQX was added to the media.

AtGLR-AP knockout lines [3] = settings: lines deficient in AtGLR1.1, uM 200, previously demonstrated; cited from earlier work

SMILES: O=c1[nH]c2cc([N+](=O)[O-])c([N+](=O)[O-])cc2[nH]c1=O [DNQX, 6,7-dinitroquinoxaline-2,3-[1H,4H]-dione]
- difference between Col-0 and the two KO lines [1]: No obvious difference
- germination when DNQX was added to the media (AtGLR-AP knockout lines [2]; GRASP2.1-1 line): not affected
- germination on media supplemented DNQX (AtGLR-AP knockout lines [2]; GRASP2.3-6 line): noticeable reduction in germination
- decrease in germination (AtGLR-AP knockout lines [2]; PSD1.1 knockout, 200 uM DNQX): 35-40%
- sensitivity of Arabidopsis lines deficient in AtGLR1.1 to the iGLR antagonist (AtGLR-AP knockout lines [3]): sensitive
